In US20220160716A1 (SORBONNE UNIVERSITE, priority 2019, published 2022):
pIC50: −log10 of the molar value.

Legend:
CDK9/T = target: T1, CDK9/T (Homo sapiens, UniProt P50750); assay: Protein kinase catalytic activity assay, CDK9/cyclin T; type: biochemical; conditions: activator cyclin T; read-out: IC50 of protein kinases, CDK9/T
T1 construct: made in house

CK1 = assay: Protein kinase catalytic activity assay, CK1; type: biochemical; conditions: read-out: IC50 of protein kinases, CK1
CLK1 = target: T2, CLK1 (Homo sapiens, UniProt P49759); assay: Protein kinase catalytic activity assay, CLK1; type: biochemical; conditions: read-out: IC50 of protein kinases, CLK1
T2 construct: made in house
T2 sequence (P49759 whole entry): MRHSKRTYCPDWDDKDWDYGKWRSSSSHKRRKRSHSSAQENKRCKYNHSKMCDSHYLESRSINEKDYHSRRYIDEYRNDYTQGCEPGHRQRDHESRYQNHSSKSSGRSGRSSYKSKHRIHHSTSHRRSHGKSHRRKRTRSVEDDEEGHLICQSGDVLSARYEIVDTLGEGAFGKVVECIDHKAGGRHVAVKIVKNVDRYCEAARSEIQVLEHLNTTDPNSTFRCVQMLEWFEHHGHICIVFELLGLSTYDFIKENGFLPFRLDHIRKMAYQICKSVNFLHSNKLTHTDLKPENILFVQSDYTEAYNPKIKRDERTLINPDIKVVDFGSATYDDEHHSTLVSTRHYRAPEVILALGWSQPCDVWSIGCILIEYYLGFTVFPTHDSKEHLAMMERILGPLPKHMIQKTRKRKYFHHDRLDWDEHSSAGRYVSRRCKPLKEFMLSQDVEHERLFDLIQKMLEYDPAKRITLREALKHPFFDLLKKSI

DYRK1A = target: T3, DYRK1A (Homo sapiens, UniProt Q13627); assay: Protein kinase catalytic activity assay, DYRK1A; type: biochemical; conditions: read-out: IC50 of protein kinases, DYRK1A
T3 construct: made in house

GSK3 = GSK3 (Homo sapiens, UniProt P49841); assay: Protein kinase catalytic activity assay, GSK3; type: biochemical; conditions: read-out: IC50 of protein kinases, GSK3
Sequence of GSK3 (P49841 whole entry): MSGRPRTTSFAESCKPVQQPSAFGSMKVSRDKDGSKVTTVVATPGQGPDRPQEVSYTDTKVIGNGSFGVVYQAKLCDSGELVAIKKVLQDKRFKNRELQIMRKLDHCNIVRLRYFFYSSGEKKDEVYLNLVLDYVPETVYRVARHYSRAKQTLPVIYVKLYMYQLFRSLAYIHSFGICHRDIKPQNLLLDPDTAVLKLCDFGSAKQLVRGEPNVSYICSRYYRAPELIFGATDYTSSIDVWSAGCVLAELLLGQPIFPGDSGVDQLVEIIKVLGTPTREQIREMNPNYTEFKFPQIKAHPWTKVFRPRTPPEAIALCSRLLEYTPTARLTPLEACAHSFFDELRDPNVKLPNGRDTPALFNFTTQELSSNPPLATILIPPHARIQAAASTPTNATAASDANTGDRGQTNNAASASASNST

CDK2/A = target: T4, CDK2/A (Homo sapiens, UniProt P24941); assay: Protein kinase catalytic activity assay, CDK2/cyclin A; type: biochemical; conditions: activator cyclin A; read-out: IC50 of protein kinases, CDK2/A
T4 construct: made in house

CDK5/p25 = target: T5, CDK5/p25 (Homo sapiens, UniProt Q00535); type: biochemical; conditions: activator p25; read-out: IC50 of protein kinases, CDK5/p25
T5 construct: made in house
T5 sequence (Q00535 whole entry, species assumed): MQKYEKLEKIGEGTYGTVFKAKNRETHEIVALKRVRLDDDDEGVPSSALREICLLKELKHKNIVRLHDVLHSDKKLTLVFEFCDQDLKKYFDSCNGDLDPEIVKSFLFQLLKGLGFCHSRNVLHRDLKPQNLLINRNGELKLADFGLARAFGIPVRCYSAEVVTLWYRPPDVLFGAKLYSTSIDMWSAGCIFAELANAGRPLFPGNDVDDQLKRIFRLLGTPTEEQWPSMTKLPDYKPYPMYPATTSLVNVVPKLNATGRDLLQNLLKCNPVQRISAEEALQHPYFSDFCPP
T5 sequence (Q15078 99-307 partner limits assumed, species assumed): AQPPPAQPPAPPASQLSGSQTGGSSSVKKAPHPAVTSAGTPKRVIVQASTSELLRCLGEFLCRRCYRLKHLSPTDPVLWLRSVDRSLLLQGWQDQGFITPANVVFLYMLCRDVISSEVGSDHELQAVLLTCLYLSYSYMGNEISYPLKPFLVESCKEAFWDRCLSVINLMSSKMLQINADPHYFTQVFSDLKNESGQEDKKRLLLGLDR

ABCB4-I541F = ABCB4-I541F (Homo sapiens, UniProt P21439, I541F); assay: Maturation of ABCB4-I541F by immunoblot in HEK cells; type: cell-based; parameters: The subcloning of wild type (WT) ABCB4, isoform A (NM_000443.3), into pcDNA3 vector has been described; expressed in transfected cells; host or cells: HEK-293 (immunoblot, PC secretion); conditions: HEK cells, 100 μM, 16 hours, immunoblot
Sequence of ABCB4-I541F (P21439 1-1279 isoform P21439-2 I541F): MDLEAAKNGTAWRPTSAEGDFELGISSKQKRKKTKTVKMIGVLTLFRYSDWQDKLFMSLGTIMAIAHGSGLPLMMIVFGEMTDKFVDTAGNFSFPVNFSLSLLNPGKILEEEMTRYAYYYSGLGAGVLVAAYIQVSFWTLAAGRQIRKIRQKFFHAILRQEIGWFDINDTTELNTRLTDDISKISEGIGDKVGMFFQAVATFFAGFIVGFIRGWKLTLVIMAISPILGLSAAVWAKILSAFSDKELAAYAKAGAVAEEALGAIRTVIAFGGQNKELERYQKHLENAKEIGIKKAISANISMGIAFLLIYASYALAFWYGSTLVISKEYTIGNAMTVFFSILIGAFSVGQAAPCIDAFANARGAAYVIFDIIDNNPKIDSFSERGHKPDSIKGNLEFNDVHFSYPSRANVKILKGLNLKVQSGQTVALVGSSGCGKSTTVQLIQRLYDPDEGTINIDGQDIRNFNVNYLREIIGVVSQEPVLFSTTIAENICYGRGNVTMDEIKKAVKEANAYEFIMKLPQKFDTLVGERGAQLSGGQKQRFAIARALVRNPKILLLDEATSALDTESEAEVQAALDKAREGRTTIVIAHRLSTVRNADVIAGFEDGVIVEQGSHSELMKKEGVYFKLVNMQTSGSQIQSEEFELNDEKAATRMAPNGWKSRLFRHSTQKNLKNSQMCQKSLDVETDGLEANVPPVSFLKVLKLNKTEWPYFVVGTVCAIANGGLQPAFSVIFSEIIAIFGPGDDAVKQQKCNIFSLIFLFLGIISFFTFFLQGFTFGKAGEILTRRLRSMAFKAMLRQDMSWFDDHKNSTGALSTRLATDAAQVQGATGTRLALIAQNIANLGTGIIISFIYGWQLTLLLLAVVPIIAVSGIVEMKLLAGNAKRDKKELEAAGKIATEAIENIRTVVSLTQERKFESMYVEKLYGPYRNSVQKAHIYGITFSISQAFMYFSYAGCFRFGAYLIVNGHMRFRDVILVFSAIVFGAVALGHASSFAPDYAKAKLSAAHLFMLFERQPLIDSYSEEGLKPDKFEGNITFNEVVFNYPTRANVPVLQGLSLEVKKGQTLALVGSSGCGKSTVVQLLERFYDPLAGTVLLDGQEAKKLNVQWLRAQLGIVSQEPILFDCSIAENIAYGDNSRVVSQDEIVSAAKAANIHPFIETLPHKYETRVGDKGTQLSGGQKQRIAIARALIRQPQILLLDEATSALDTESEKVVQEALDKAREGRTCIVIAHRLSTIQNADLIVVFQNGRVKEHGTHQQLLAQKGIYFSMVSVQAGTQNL
Experimental: (§1) Cyclosporin A (CsA) was from Santa Cruz Biotechnologies (Dallas, Tex.). […] Each compound was solubilized in dimethylsulfoxide (DMSO) as 1000× concentrated stock solutions in order to treat cells with 5 μM to 100 μM final concentrations, using DMSO as control vehicle at the same dilution (0.1% DMSO for all conditions). The cells were treated 24 hours post-transfection with these drugs during 16 hours, except for the viability assays for which cells were treated during three days. After drug treatment, cells were used for immunoanalyses, cell viability assays or PC secretion assays.
Western blots and indirect immunofluorescence were performed as previously described (2, 12). […] Signals were detected with ECL prime western blotting detection reagent (GE Healthcare, Velizy-Villacoublay, France) and quantified in the linear range of detection using ImageJ 1.50i software (U.S. National Institutes of Health, Bethesda, Md.).

HEK cells = assay: Cell viability MTT assay in HEK cells; conditions: three days
Experimental: as §1
Cell viability was assessed by the conversion of MTT (3-[4,5-dimethylthiazol-2-yl]-2,5 diphenyl tetrazolium bromide) into formazan crystals by living cells, as described (14). […] These conditions were optimized in order to maintain the absorbance at 540 nm of the blanks below 0.1 OD unit (negative controls) and the absorbance at 540 nm for untreated cells between 1.0 and 1.3 OD units (positive controls). Then culture media were gently washed out, cells were lysed in 100 μL of pure DMSO and absorbance at 540 nm was measured using a multiplate cytofluorimeter SpectraFluor from Tecan (Männedorf, Switzerland). Cell viability was calculated for each triplicate after background subtraction and expressed as percentage of the mean for cells treated with vehicle only.

T1 sequence (P50750 whole entry, species assumed): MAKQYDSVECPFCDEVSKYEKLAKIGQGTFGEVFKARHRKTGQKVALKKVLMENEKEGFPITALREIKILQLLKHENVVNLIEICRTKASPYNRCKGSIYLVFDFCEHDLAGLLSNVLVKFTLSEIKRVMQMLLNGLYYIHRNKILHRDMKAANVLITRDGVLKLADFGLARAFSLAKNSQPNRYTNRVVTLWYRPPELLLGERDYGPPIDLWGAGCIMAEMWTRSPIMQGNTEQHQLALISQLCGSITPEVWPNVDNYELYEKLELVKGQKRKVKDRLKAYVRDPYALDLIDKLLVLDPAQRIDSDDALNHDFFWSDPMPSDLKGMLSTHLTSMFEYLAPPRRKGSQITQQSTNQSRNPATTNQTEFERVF
T1 sequence (O60563 whole entry partner, species assumed): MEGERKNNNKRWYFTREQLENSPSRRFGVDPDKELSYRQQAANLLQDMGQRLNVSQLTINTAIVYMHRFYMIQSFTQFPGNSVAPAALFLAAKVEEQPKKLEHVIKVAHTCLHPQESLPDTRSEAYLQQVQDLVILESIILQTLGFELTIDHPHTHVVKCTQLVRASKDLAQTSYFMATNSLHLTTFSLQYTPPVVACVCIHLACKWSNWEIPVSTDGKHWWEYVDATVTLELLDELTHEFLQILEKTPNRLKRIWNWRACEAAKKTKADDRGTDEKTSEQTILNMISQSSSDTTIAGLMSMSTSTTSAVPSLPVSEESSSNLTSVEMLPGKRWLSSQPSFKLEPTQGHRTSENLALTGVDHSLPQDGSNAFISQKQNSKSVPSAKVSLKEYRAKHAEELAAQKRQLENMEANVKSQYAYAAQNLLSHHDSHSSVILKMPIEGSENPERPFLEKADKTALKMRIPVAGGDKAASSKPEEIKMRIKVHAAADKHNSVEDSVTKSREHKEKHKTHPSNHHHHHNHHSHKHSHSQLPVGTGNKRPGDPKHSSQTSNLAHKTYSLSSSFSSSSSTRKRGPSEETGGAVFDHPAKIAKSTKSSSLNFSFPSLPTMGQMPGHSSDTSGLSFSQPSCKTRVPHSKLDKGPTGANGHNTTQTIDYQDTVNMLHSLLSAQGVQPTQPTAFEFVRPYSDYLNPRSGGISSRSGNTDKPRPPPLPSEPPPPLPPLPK

SMILES | pIC50 (CDK9/T) | pIC50 (CK1) | pIC50 (CLK1) | pIC50 (DYRK1A) | pIC50 (GSK3) | pIC50 (CDK2/A) | pIC50 (CDK5/p25) | maturation (mature form) of ABCB4-I541F (ABCB4-I541F) | cell viability (HEK cells; 25 μM, % of vehicle-treated cells) | cytotoxicity (HEK cells; increasing concentrations)
CC[C@@H](Nc1nc(NCc2ccccc2)c2ncn(C(C)C)c2n1)C(=O)O [M3, reference compound] | < 4.48 | < 4.48 | < 4.48 | 4.72 | < 5.00 | – | – | – | – | –
CC(C)n1cnc2c(NCc3ccccc3)nc(N[C@@H](CO)C(=O)O)nc21 [MRT2-164] | 4.77 | 4.55 | < 4.48 | < 5.00 | < 5.00 | – | – | – | – | –
CC[C@@H](Nc1nc(NCc2cccc(C(F)(F)F)c2)c2ncn(C3CCCC3)c2n1)C(=O)O [MRT2-239] | 4.70 | 5.40 | 5.05 | 4.68 | < 5.00 | 5.10 | 4.96 | significantly increase the expression of a mature form of ABCB4-I541F | – | –
CC[C@@H](Nc1nc(NCc2ccc(F)c(F)c2)c2ncn(C3CCCC3)c2n1)C(=O)O [MRT2-241] | 5.10 | 4.96 | 4.89 | 4.70 | < 5.00 | 5.29 | 4.77 | significantly increase the expression of a mature form of ABCB4-I541F | – | –
CC[C@@H](Nc1nc(NCc2ccccc2)c2ncn(C3CCCC3)c2n1)C(=O)O [MRT2-245] | 4.55 | 4.77 | 4.89 | 4.68 | < 5.00 | 5.20 | 4.82 | significantly increase the expression of a mature form of ABCB4-I541F | – | –
CC[C@@H](Nc1nc(NCc2cccc(C(F)(F)F)c2)c2ncn(C(C)C)c2n1)C(=O)O [MRT2-249] | < 4.48 | 5.30 | 4.64 | 5.05 | < 5.00 | 5.05 | 4.57 | significantly increase the expression of a mature form of ABCB4-I541F | – | –
CC[C@H](CO)Nc1nc(NCc2ccccc2)c2ncn(C(C)C)c2n1 [Roscovitine, (R)-roscovitine] | – | – | – | – | – | – | – | – | less than 60% | important dose-dependent cytotoxicity
